According to patent US20070129344A1, “Bicyclic 6-alkylidene-penem beta-lactamase inhibitors and beta-lactam antibiotic combination: a broad spectrum antibiotic” (priority 2005, published 2007):
Structures can show the parent of a compound that is named as a salt. Where two headings read alike, the source gives them in different places.

What was measured:
[1] = test system: K. pneumoniae GC 7632 TEM-1 KPC-2, SHV-7, SHV-12; assay: MIC microbroth dilution; β-lactamase class A, A (Cb'ase), A (ESBL); assay type: cell-based
Description: (§1) The in vitro activities of the antibiotics were determined by the microbroth dilution method as recommended by the National Committee for Clinical Laboratory Standards (NCCLS). (NCCLS. 2000. Methods for Dilution Antimicrobial Susceptibility Tests for Bacteria That Grow Aerobically; Approved Standards: M7-A5, vol. 19. National Committee for Clinical Laboratory Standards, Villanova, Pa.). Mueller-Hinton II broth (MHBII)(BBL Cockeysville, Md.), was used for the testing procedure. […]. The plates were incubated for 18-22 hours at 35° C. in ambient air.

K. pn GC 6639 (SHV-13) = assay: MIC microbroth dilution; β-lactamase class A (ESBL); assay type: cell-based, K. pneumoniae
Description: as §1

K. pn GC 1830 (SHV-2) = assay: as above; assay type: cell-based, K. pneumoniae
Description: as §1

K. pn GC 1832 (SHV-4) = assay: as above; assay type: cell-based, K. pneumoniae
Description: as §1

E. coli GC 2804 (imp) = assay: MIC microbroth dilution; β-lactamase class none; assay type: cell-based
Description: as §1

E. coli GC 2844 (none) = assay: MIC microbroth dilution; β-lactamase class none; assay type: cell-based
Description: as §1

[2] = test system: E. coli ATCC 25922 (none); assay: MIC microbroth dilution; β-lactamase class none; assay type: cell-based
Description: as §1

E. coli GC 2847 (TEM-1) = assay: MIC microbroth dilution; β-lactamase class A; assay type: cell-based
Description: as §1

E. coli GC 1995 (TEM-10) = assay: MIC microbroth dilution; β-lactamase class A (ESBL); assay type: cell-based
Description: as §1

[3] = test system: S. typhimurium GC 4197 CTX-M-5; assay: as above; assay type: cell-based
Description: as §1

[4] = test system: E. coli GC 2017 (TEM-10 + pl 6.3; 8.1); assay: as above; assay type: cell-based
Description: as §1

E. coli GC 2400 (TEM-43) = assay: as above; assay type: cell-based
Description: as §1

E. coli GC 1684 (TEM-10) = assay: as above; assay type: cell-based
Description: as §1

E. coli GC 6368 (SHV-7) = assay: as above; assay type: cell-based
Description: as §1

E. coli GC 2300 (TEM-28) = assay: as above; assay type: cell-based
Description: as §1

[5] = test system: A. baumannii PT 9158 PTZ-R; assay: MIC microbroth dilution; β-lactamase class not determined; assay type: cell-based
Description: as §1

[6] = test system: A. baumannii PT 8321 PTZ-R; assay: as above; assay type: cell-based
Description: as §1

[7] = test system: E. coli GC 4971 OXA-1, TEM-1; assay: MIC microbroth dilution; β-lactamase class A, D; assay type: cell-based
Description: as §1

[8] = test system: K. pn GC 2006 (TEM-10 + SHV-1); assay: MIC microbroth dilution; β-lactamase class A, A (ESBL); assay type: cell-based, K. pneumoniae
Description: as §1

[9] = test system: K. pn GC 1507 (TEM-9 + SHV-1); assay: as above; assay type: cell-based, K. pneumoniae
Description: as §1

[10] = test system: K. pn GC 6494 (TEM-1 + SHV-5); assay: as above; assay type: cell-based, K. pneumoniae
Description: as §1

[11] = test system: K. pn GC 3057 (CAZ-R; P/T-R); assay: as above; assay type: cell-based, K. pneumoniae
Description: as §1

[12] = test system: K. pn GC 6657 (TEM-1 + SHV-27); assay: as above; assay type: cell-based, K. pneumoniae
Description: as §1

[13] = test system: K. pn GC 1963 (TEM-10 + SHV-1 + SHV-ESBL); assay: as above; assay type: cell-based, K. pneumoniae
Description: as §1

[14] = test system: K. pn GC 6488 (TEM-1 + SHV-5 + SHV-7); assay: as above; assay type: cell-based, K. pneumoniae
Description: as §1

[15] = test system: K. pn GC 1554 (TEM-1 + TEM-26 + SHV-1); assay: as above; assay type: cell-based, K. pneumoniae
Description: as §1

[16] = test system: K. pn GC 6651 (TEM-1 + SHV-1 + SHV-5); assay: as above; assay type: cell-based, K. pneumoniae
Description: as §1

[17] = test system: S. maltophilia GC 1712 (L1); assay: MIC microbroth dilution; β-lactamase class B; assay type: cell-based
Description: as §1

[18] = test system: E. coli GC 6197 (TEM-1 + SHV-7 + CMY-2); assay: MIC microbroth dilution; β-lactamase class A, A (ESBL), C; assay type: cell-based
Description: as §1

[19] = test system: K. pneumoniae GC 2826 Act 1 + 3 additional; assay: as above; assay type: cell-based
Description: as §1

[20] = test system: E. coli GC 2149 (ACT-1; TEM-1 + pl 5.6); assay: as above; assay type: cell-based
Description: as §1

[21] = test system: K. pneumoniae GC 2825 Act 1 + 3 additional; assay: as above; assay type: cell-based
Description: as §1

E. coli GC 2920 (IRT-2) = assay: MIC microbroth dilution; β-lactamase class A (IRT); assay type: cell-based
Description: as §1

[22] = test system: E. coli GAR 6649 TEM, OXA, CTX (By PCR only); assay: MIC microbroth dilution; β-lactamase class A, A (ESBL), D; assay type: cell-based
Description: as §1

[23] = Klebsiella pneumoniae, Cefepime + 4 ug/ml Compound 2, read-out: MIC
[24] = Escherichia coli, Cefepime + 4 ug/ml Compound 2, read-out: MIC

Measured: MIC

O=C([O-])C1=CS[C@@H]2/C(=C\c3cn4c(n3)CCC4)C(=O)N12.[Na+] [Compound 1, (5R), (6Z)-6-(6,7-Dihydro-5H-pyrrolo[1,2-a]imidazol-2-ylmethylene)-7-oxo-4-thia-1-aza-bicyclo[3.2.0]hept-2-ene-2-carboxylic Acid, Sodium Salt]
<0.015 µg/mL: E. coli GC 2804 (imp); Cefepime + 4 ug/ml Compound 1
0.12 µg/mL: [4]; Cefepime + 4 ug/ml Compound 1 | [7]; Cefepime + 4 ug/ml Compound 1 | [8]; Cefepime + 4 ug/ml Compound 1 | [9]; Cefepime + 4 ug/ml Compound 1 | [10]; Cefepime + 4 ug/ml Compound 1 | [11]; Cefepime + 4 ug/ml Compound 1 | [12]; Cefepime + 4 ug/ml Compound 1 | [13]; Cefepime + 4 ug/ml Compound 1 | [16]; Cefepime + 4 ug/ml Compound 1 | [21]; Cefepime + 4 ug/ml Compound 1
16 µg/mL: [1]; Cefepime + 4 ug/ml Compound 1 | [5]; Cefepime + 4 ug/ml Compound 1 | [17]; Cefepime + 4 ug/ml Compound 1
0.50 µg/mL: E. coli GC 2400 (TEM-43); Cefepime + 4 ug/ml Compound 1 | [20]; Cefepime + 4 ug/ml Compound 1
0.03 µg/mL: K. pn GC 1830 (SHV-2); Cefepime + 4 ug/ml Compound 1 | [2]; E. coli ATCC 25922, Cefepime + 4 ug/ml Compound 1 | E. coli GC 6368 (SHV-7); Cefepime + 4 ug/ml Compound 1
>16 µg/mL: [6]; Cefepime + 4 ug/ml Compound 1
0.25 µg/mL: K. pn GC 6639 (SHV-13); Cefepime + 4 ug/ml Compound 1 | E. coli GC 2300 (TEM-28); Cefepime + 4 ug/ml Compound 1 | [15]; Cefepime + 4 ug/ml Compound 1
1 µg/mL: [3]; Cefepime + 4 ug/ml Compound 1 | [14]; Cefepime + 4 ug/ml Compound 1 | [19]; Cefepime + 4 ug/ml Compound 1 | [22]; Cefepime + 4 ug/ml Compound 1
0.06 µg/mL: K. pn GC 1832 (SHV-4); Cefepime + 4 ug/ml Compound 1 | E. coli GC 2844 (none); Cefepime + 4 ug/ml Compound 1 | E. coli GC 2847 (TEM-1); Cefepime + 4 ug/ml Compound 1 | E. coli GC 1995 (TEM-10); Cefepime + 4 ug/ml Compound 1 | E. coli GC 1684 (TEM-10); Cefepime + 4 ug/ml Compound 1 | E. coli GC 2920 (IRT-2); Cefepime + 4 ug/ml Compound 1
4 µg/mL: [18]; Cefepime + 4 ug/ml Compound 1

O=C(O)C1=CS[C@@H]2/C(=C\c3cn4c(n3)COCC4)C(=O)N12 [Compound 2, (5R), (6Z)-6-(5,6-Dihydro-8H-imidazo[2.1-c][1,4]oxazin-2-ylmethylene)-7-oxo-4-thia-1-azabicyclo[3.2.0]hept-2-ene-2-carboxylic Acid, Sodium Salt]
< 0.015 µg/mL: E. coli GC 2804 (imp); Escherichia coli, Cefepime + 4 ug/ml Compound 2
0.5 µg/mL: E. coli GC 2400 (TEM-43); [24] | [14]; [23] | [20]; [24]
0.12 µg/mL: K. pn GC 6639 (SHV-13); [23] | [7]; [24] | [10]; [23] | [11]; [23] | [15]; [23] | [16]; [23] | [21]; [23]
0.25 µg/mL: [3]; Salmonella enterica, Cefepime + 4 ug/ml Compound 2, read-out: MIC | E. coli GC 2300 (TEM-28); [24] | [8]; [23] | [13]; [23]
0.06 µg/mL: K. pn GC 1830 (SHV-2); [23] | K. pn GC 1832 (SHV-4); [23] | E. coli GC 2844 (none); [24] | [2]; Escherichia coli, ATCC25922, E. coli ATCC 25922, Cefepime + 4 ug/ml Compound 2, read-out: MIC | E. coli GC 2847 (TEM-1); [24] | [4]; [24] | E. coli GC 1684 (TEM-10); [24] | E. coli GC 6368 (SHV-7); [24] | [9]; [23] | [12]; [23] | E. coli GC 2920 (IRT-2); [24]
0.03 µg/mL: E. coli GC 1995 (TEM-10); [24]
2 µg/mL: [18]; [24]
1 µg/mL: [19]; [23] | [22]; [24]
16 µg/mL: [5]; Acinetobacter baumannii, PT9158PTZR, Cefepime + 4 ug/ml Compound 2, read-out: MIC | [17]; Stenotrophomonas maltophilia, Cefepime + 4 ug/ml Compound 2, read-out: MIC
> 16 µg/mL: [1]; [23] | [6]; Acinetobacter baumannii, PT8321PTZR, Cefepime + 4 ug/ml Compound 2, read-out: MIC
